Experiments:
Format in all cases: in vivo
[1] = test system: Tetranychus urticae (Two-Spotted Spider Mite); assay: Example B5: Tetranychus urticae (Two-Spotted Spider Mite), feeding/contact activity; details: foliar, 192 h, application rate of 200 ppm, mixed population (mobile stages) on sprayed bean leaf discs, 8 days after infestation
Experimental: Example B5: Tetranychus urticae (Two-Spotted Spider Mite): Feeding/Contact Activity
Bean leaf discs on agar in 24-well microtiter plates were sprayed with aqueous test solutions prepared from 10′000 ppm DMSO stock solutions. After drying the leaf discs were infested with a mite population of mixed ages. The samples were assessed for mortality on mixed population (mobile stages) 8 days after infestation.

[2] = test system: Diabrotica balteata (Corn Root Worm); assay: Example B1: Diabrotica balteata (Corn Root Worm), sprayed maize sprouts; details: 96 h, application rate of 200 ppm, L2 larvae on sprayed maize sprouts, 4 days after infestation, read-out: control in at least one of the two categories (mortality or growth inhibition)
Experimental: Example B1: Diabrotica balteata (Corn Root Worm)
Maize sprouts placed onto an agar layer in 24-well microtiter plates were treated with aqueous test solutions prepared from 10′000 ppm DMSO stock solutions by spraying. After drying, the plates were infested with L2 larvae (6 to 10 per well). The samples were assessed for mortality and growth inhibition in comparison to untreated samples 4 days after infestation.
The following compounds gave an effect of at least 80% control in at least one of the two categories (mortality or growth inhibition) at an application rate of 200 ppm: P1.2, P2.1, P2.2, P2.5, P2-17, P3.4, P7.1, P8.1

[3] = test system: Euschistus heros (Neotropical Brown Stink Bug); assay: Example B2: Euschistus heros (Neotropical Brown Stink Bug), sprayed soybean leaves; details: 120 h, application rate of 200 ppm, N2 nymphs on sprayed soybean leaves, 5 days after infestation, read-out: control in at least one of the two categories (mortality or growth inhibition)
Experimental: Example B2: Euschistus heros (Neotropical Brown Stink Bug)
Soybean leaves on agar in 24-well microtiter plates were sprayed with aqueous test solutions prepared from 10′000 ppm DMSO stock solutions. After drying the leaves were infested with N2 nymphs. The samples were assessed for mortality and growth inhibition in comparison to untreated samples 5 days after infestation.
The following compounds gave an effect of at least 80% control in at least one of the two categories (mortality or growth inhibition) at an application rate of 200 ppm: P2.1., P8.1

[4] = test system: Plutella xylostella (Diamond Back Moth); assay: Example B3: Plutella xylostella (Diamond Back Moth), artificial diet; details: 192 h, application rate of 200 ppm, eggs, treated artificial diet, 8 days after infestation, read-out: control in at least one of the two categories (mortality or growth inhibition)
Experimental: Example B3: Plutella xylostella (Diamond Back Moth)
24-well microtiter plates with artificial diet were treated with aqueous test solutions prepared from 10′000 ppm DMSO stock solutions by pipetting. After drying, Plutella eggs were pipetted through a plastic stencil onto a gel blotting paper and the plate was closed with it. The samples were assessed for mortality and growth inhibition in comparison to untreated samples 8 days after infestation. The following compounds gave an effect of at least 80% control in at least one of the two categories (mortality or growth inhibition) at an application rate of 200 ppm: P1.2, P1.15, P1.51, P2.1, P2.2, P2.5, P2.10, P2.15, P2.16, P5.1, P5.2, P5.3, P7.1, P8.1

Structure (SMILES) | mortality at 200 ppm [1] [%] | percent control (mortality or growth inhibition) at 200 ppm [2] [%] | percent control (mortality or growth inhibition) at 200 ppm [3] [%] | percent control (mortality or growth inhibition) at 200 ppm [4] [%]
Cc1nc(C2CCN(C(=O)c3cc(C#N)c(-c4ccc(C(F)(F)F)cc4)cc3C(F)(F)F)CC2)no1 [Compound P1.1, 5-[4-(5-Methyl-1,2,4-oxadiazol-3-yl)piperidine-1-carbonyl]-4-(trifluoromethyl)-2-[4-(trifluoromethyl)phenyl]benzonitrile] | ≥ 80 | – | – | –
CCOc1cc(-c2ccc(C(F)(F)F)cc2)c(C#N)cc1C(=O)N1CCC(CSCC)CC1 [Compound P1.46, 4-Ethoxy-5-[4-(ethylsulfanylmethyl)piperidine-1-carbonyl]-2-[4-(trifluoromethyl)phenyl]-benzonitrile] | ≥ 80 | – | – | –
N#Cc1cc(C(=O)N2CCN(c3ncc(Cl)cc3Cl)CC2)c(C(F)(F)F)cc1-c1ccc(C(F)(F)F)cc1 [Compound P2.1, 5-[4-(3,5-Dichloro-2-pyridyl)piperazine-1-carbonyl]-4-(trifluoromethyl)-2-[4-(trifluoromethyl)phenyl]benzonitrile] | ≥ 80 | ≥ 80 | ≥ 80 | ≥ 80
CCOc1cc(-c2ccc(C(F)(F)F)cc2)c(C#N)cc1C(=O)N1CCN(c2ncc(Cl)cc2Cl)CC1 [Compound P2.5, 5-[4-(3,5-Dichloro-2-pyridyl)piperazine-1-carbonyl]-4-ethoxy-2-[4-(trifluoromethyl)-phenyl]-benzonitrile] | ≥ 80 | ≥ 80 | – | ≥ 80
CCC[S+]([O-])CC1CN(C(=O)c2cc(C#N)c(-c3ccc(C(F)(F)F)cc3)cc2C(F)(F)F)C1 (stereo not shown) [Compound P3.7, 5-[3-(Propylsulfinylmethyl)azetidine-1-carbonyl]-4-(trifluoromethyl)-2-[4-(trifluoromethyl)phenyl]-benzonitrile] | ≥ 80 | – | – | –
CCCSCC1CN(C(=O)c2cc(C#N)c(-c3ccc(C(F)(F)F)cc3)cc2C(F)(F)F)C1 [Compound P3.9, 5-[3-(propylsulfanylmethyl)azetidine-1-carbonyl]-4-(trifluoromethyl)-2-[4-(trifluoromethyl)-phenyl]benzonitrile] | ≥ 80 | – | – | –
Cc1nc(C2CCN(C(=O)c3cc(C#N)c(-c4ccc(C(F)(F)F)cc4)c(C#N)c3C)CC2)no1 [Compound P6.1] | ≥ 80 | – | – | –
NC(=S)c1cc(C(=O)N2CCN(c3ncc(Cl)cc3Cl)CC2)c(C(F)(F)F)cc1-c1ccc(C(F)(F)F)cc1 [Compound P8.1, 5-[4-(3,5-Dichloro-2-pyridyl)piperazine-1-carbonyl]-4-(trifluoromethyl)-2-[4-(trifluoromethyl)phenyl]benzenecarbothioamide] | ≥ 80 | ≥ 80 | ≥ 80 | ≥ 80
